The source of these data is ChEMBL document CHEMBL1127915, “Isolation and structure of the symmetrical disteroidal alkaloids cephalostatin 12 and cephalostatin 13” (1994).

Converted amounts (≈) assume the structure as drawn.

Experiment [1] deals with Panel (Carcinoma cell lines). Briefly: Effective dose for human cancer cell line growth inhibition was determined. The class given is functional. The note with it: read-out: ED50 (the source's name).
Experiment [2] concerns Panel (Carcinoma cell lines). The experiment in a line: Inhibitory activity against human cancer cell line growth was determined. The experiment is classed as functional.

As for `C[C@@H]1[C@]2(O[C@H]3C=C4[C@@H]5CC[C@H]6Cc7nc8c(nc7C[C@]6(C)[C@H]5C[C@@H](O)[C@]4(C)[C@]31O)C[C@@H]1CC[C@H]3C4=C[C@@H]5O[C@]6(O[C@](C)(CO)C[C@H]6O)[C@@H](C)[C@]5(O)[C@@]4(C)[C@H](O)C[C@@H]3[C@@]1(C)C8)O[C@](C)(CO)C[C@H]2O` [CEPHALOSTATIN 12], the EC50 in experiment [1] was 0.072 µg/mL (≈ 0.0762 µM). For the same compound, the GI50 in experiment [2] was 0.4 µM.

The compound `C[C@@H]1[C@]2(O[C@H]3C=C4[C@@H]5CC[C@H]6Cc7nc8c(nc7C[C@]6(C)[C@H]5C[C@@H](O)[C@]4(C)[C@]31O)C[C@@H]1CC[C@H]3C4=CC[C@@H]5[C@H](C)[C@@]6(OC[C@]45C(=O)C[C@@H]3[C@@]1(C)C8)OC(C)(C)C[C@H]6O)O[C@](C)(CO)C[C@H]2O` [CEPHALOSTATIN 1] showed a concentration for 50% growth inhibition (GI50) in experiment [2] of 0.001 µM.

On to `C[C@@H]1[C@]2(O[C@H]3C=C4[C@@H]5CC[C@H]6Cc7nc8c(nc7C[C@]6(C)[C@H]5C[C@@H](O)[C@]4(C)[C@]31O)C[C@@H]1CC[C@H]3C4=C[C@@H]5O[C@]6(O[C@](C)(CO)C[C@H]6O)[C@@H](C)[C@]5(O)[C@@]4(C)[C@H](O)C[C@@H]3[C@@]1(C)[C@H]8O)O[C@](C)(CO)C[C@H]2O` [CEPHALOSTATIN 13], for which the EC50 in experiment [1] turned out to be 0.046 µg/mL (≈ 0.0479 µM). The compound also gave a GI50 in experiment [2] of more than 1 µM.
